Assays:
[1] = target: T1, pSmad2 (Homo sapiens, UniProt Q15796); test: Inhibition of phosphorylation of Smad2 (Western blotting); format: cell-based; settings: LX-2 cells, 10 ng/ml TGF-β1 24 hours, then peptide 10, 100 or 200 μM 24 hours; FIG. 5
T1 construct: LX-2 (Human hepatic stellate cell line, Millipore #SCC064); host or cells: LX-2 human hepatic stellate cell line
Procedure: (§1) 3×10^6 LX-2 cells were treated with 10 ng/ml TGF-β1 and cultured for 24 hours. The cells were treated with 10, 100, or 200 μM of the peptide of SEQ ID NO: 2 or 10 µM SIS3 (Smad3 inhibitor, Sigma-Aldrich, catalog #566405) in fresh medium and cultured for 24 hours.
(§2) Proteins were lysed using RIPA lysis buffer (25 mM Tris HCl pH 7.6, 150 mM NaCl, 1% NP-40, 1% sodium deoxycholate, 0.1% SDS) containing a protease inhibitor and a phosphatase inhibitor. Proteins were quantified by BCA protein assay, and the expression levels of pSmad2, Smad2, pSmad3, Smad3, TGFβ receptor 1, and GAPDH proteins were determined by Western blotting. For Western blotting, the sample was loaded in the same amount along with a size marker on an 8% SDS PAGE gel, electrophoresed for about 2 hours, and then transferred to a nitrocellulose membrane. The transferred membrane was blocked with 5% skim milk for 1 hour, and allowed to react with primary antibodies at a ratio of 1:1000 overnight. The primary antibodies used were pSmad2 (Cell Signaling, #3108), Smad2 (Cell Signaling, #5339), pSmad3 (Abcam, ab52903), Smad3 (Cell Signaling, #9513), TGFβ receptor1 (Abcam, ab31013), and GAPDH (Cell Signaling, #2118S). […]

[2] = target: T2, pSmad3 (Homo sapiens, UniProt P84022); test: Inhibition of phosphorylation of Smad3 (Western blotting); format: cell-based; settings: LX-2 cells, 10 ng/ml TGF-β1 24 hours, then peptide 10, 100 or 200 μM 24 hours; effect from 10 μM; FIG. 5
T2 construct: LX-2 (Human hepatic stellate cell line, Millipore #SCC064); host or cells: LX-2 human hepatic stellate cell line
T2 sequence (P84022 whole entry): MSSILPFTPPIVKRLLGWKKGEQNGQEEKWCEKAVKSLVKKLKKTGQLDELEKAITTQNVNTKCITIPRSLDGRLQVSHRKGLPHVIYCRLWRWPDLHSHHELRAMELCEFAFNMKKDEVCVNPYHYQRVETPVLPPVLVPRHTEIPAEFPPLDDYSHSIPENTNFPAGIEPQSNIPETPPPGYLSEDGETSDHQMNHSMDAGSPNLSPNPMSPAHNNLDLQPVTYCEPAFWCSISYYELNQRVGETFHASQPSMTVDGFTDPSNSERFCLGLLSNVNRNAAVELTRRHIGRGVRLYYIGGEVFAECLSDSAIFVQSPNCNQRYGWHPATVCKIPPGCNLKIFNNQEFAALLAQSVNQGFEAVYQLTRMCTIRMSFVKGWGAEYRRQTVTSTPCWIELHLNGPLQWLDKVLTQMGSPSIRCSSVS
Procedure: as §1, §2

[3] = system: TGFβ receptor 1; test: TGFβ receptor expression level (Western blotting); format: cell-based, human; settings: LX-2 cells, 10 ng/ml TGF-β1 24 hours, then peptide 10, 100 or 200 μM 24 hours; FIG. 5
Procedure: as §1, §2

[4] = system: COL1A2 and COL3A1 gene expression; test: Inhibition of collagen gene expression in cells (real-time PCR); format: cell-based, human; settings: IPF patient lung fibroblasts, 10 ng/ml TGF-β1 24 hours, then peptide 200 μM 24 hours; *p<0.05; FIG. 6
Procedure: The cells were seeded in a 24-well plate and cultured in starvation medium (Dulbecco's modified Eagle medium/F12 without FBS supplemented with 0.1 mM 2-phospho-L-ascorbic acid) for 24 hours. Recombinant Human TGF-β1 Protein (R&D Systems, #240-B-002) was diluted at 20 μg/ml in sterile 4 mM HCl containing 1 mg/ml bovine serum albumin. The cells were cultured for 24 hours in full growth media containing 10 ng/ml TGF-β1. The cells were treated with SEQ ID NO: 1 (200 μM), SEQ ID NO: 2 (200 μM), or nintedanib (10 μM) in fresh medium and cultured for 24 hours. The peptides were dissolved in purified water, nintedanib was dissolved in dimethyl sulfoxide, and the concentration of dimethyl sulfoxide in medium was set to 1%. The medium was removed, followed by washing with DPBS (Welgene, LB001-02) and cell lysis using 1 ml of a trizol reagent (Ambion, 15596). 250 μl of chloroform was added thereto, the tube was stirred, and centrifugation was performed at 10,000 rpm for 15 minutes. After removing the aqueous layer using a pipette, 550 μl of isopropanol (Sigma, 19516) was added and shaken gently. After centrifugation at 15,000 rpm for 25 minutes, isopropanol was removed, and 1 ml of 75% ethanol was added thereto. After removal of ethanol and drying in air, the pellets were dissolved in DEPC water (Invitrogen, AM9915G). The concentration of RNA was measured using a Nano Drop (Thermo Scientific, NanoDrop One, AZY1913798).
CDNA was synthesized from the extracted RNA using a Maxima First strand CDNA synthesis kit (Thermo Fisher, K1641) according to the manufacturer's protocol. In addition, real-time PCR was performed using QuantStudio 3 (Applied Biosystems, A28132) according to the manufacturer's protocol. PCR amplification was conducted by repeating 50 cycles at 95° C. for 30 seconds, 60° C. for 30 seconds, and 72° C. for 30 seconds.

[5] = system: MET markers (E-cadherin, EpCAM) and EMT markers (N-cadherin, Twist1, Snail1); test: Reprogramming effects in cells: MET and EMT marker gene expression (real-time PCR); format: cell-based, human; settings: LX-2 cells, 10 ng/ml TGF-beta1 and 100 μM peptide, 24 hours; FIG. 7
Procedure: The medium was removed, followed by washing with DPBS (Welgene, LB001-02) and cell lysis using 1 ml of a trizol reagent (Ambion, 15596). 250 μl of chloroform was added thereto, the tube was stirred, and centrifugation was performed at 10,000 rpm for 15 minutes. After removing the aqueous layer using a pipette, 550 μl of isopropanol (Sigma, 19516) was added and shaken gently. After centrifugation at 15,000 rpm for 25 minutes, isopropanol was removed, and 1 ml of 75% ethanol was added thereto. After removal of ethanol and drying in air, the pellets were dissolved in DEPC water (Invitrogen, AM9915G). The concentration of RNA was measured using a Nano Drop (Thermo Scientific, NanoDrop One, AZY1913798).
CDNA was synthesized from the extracted RNA using a Maxima First strand CDNA synthesis kit (Thermo Fisher, K1641) according to the manufacturer's protocol. In addition, real-time PCR was performed using QuantStudio 3 (Applied Biosystems, A28132) according to the manufacturer's protocol. PCR amplification was conducted by repeating 40 cycles at 95° C. for 15 seconds, 60° C. for 50 seconds, and 72° C. for 15 seconds.

[6] = system: bleomycin-induced lung disease; settings: bleomycin mice; for fibrous deposition in the lungs (Sirius Red and hematoxylin/phloxine staining) / area of fibrosis (Sirius Red): day 22; for fibrous deposition in the lungs (Sirius Red and hematoxylin/phloxine staining): peptides 30 mg/kg subcutaneously three times a week compared to NT and nintedanib groups, FIG. 8c; for area of fibrosis (Sirius Red): compared to NT group and nintedanib-treated group, P<0.05, FIG. 8d
Procedure: C57BL/6J mice (male, 7 weeks old) were purchased from Charles River. Mice were anesthetized by intraperitoneal administration of a mixture of Imalgene (ketamine, 100 mg/kg)/Rompun (xylazine, 20 mg/kg), and a total of 50 μl of bleomycin sulfate (1.45 mg/kg, MBcell, CA, USA) was injected intratracheally once, and saline was injected intratracheally in the normal group (day 0). On day 7, mice were divided into groups, each consisting of eight. PBS (NT), SEQ ID NO: 1 (30 mg/kg), and SEQ ID NO: 2 (30 mg/kg) were administered subcutaneously three times a week, and nintedanib (Fluorochem Ref=050741, 100 mg/kg) was administered orally daily. Each of the peptides of SEQ ID NO: 1 and SEQ ID NO: 2 was administered after dissolution in water for injection, and nintedanib was administered after mixing with water containing 0.5% hydroxyethylcellulose (Sigma; lot BCBV5033) and 0.01% Tween 80 (Sigma; lot BCBR6211V). While administering the drug for 21 days, body weight was measured every 2 days, and whether there were other clinical symptoms were checked.
After mice were sacrificed with isoflurane on day 22, lung tissue was excised therefrom and histological analysis was performed. Paraffin was introduced into the lungs, 5 μm paraffin sections were manufactured, Sirius Red staining and hematoxylin/phloxine staining were performed to evaluate the extent of pulmonary fibrosis and inflammation, and the extent of inflammation and fibrosis was observed through microscopy.
In order to quantify the fibrotic change, the area of the red (fibrotic portion) was quantified in the sample stained with Sirius Red.

[7] = system: methionine-choline-deficient (MCD) diet-induced hepatitis and hepatic fibrosis; test: Methionine-choline-deficient diet mouse model (hepatitis and hepatic fibrosis); format: in vivo, C57BL/6J mice; settings: MCD diet mice, peptide 20 mg/kg, 12 administrations at 3-day intervals, compared to NT group or GLP-1 agonist (liraglutide 0.2 mg/kg) group; for NAFLD activity score: FIGS. 9b, 9c; for area of fibrosis (Masson's trichrome-positive area): FIGS. 9d, 9e
Procedure: Male 6-week-old C57BL/6J mice were used, and divided into a normal diet group, a group not treated after feeding MCD diet, groups injected with the peptide of SEQ ID NO: 1 (20 mg/kg) and the peptide of SEQ ID NO: 2 (20 mg/kg), and a positive control group subcutaneously injected with liraglutide (0.2 mg/kg), which is a type of glucagon-like peptide 1 receptor agonist serving as a hepatitis therapeutic agent. After autonomous feeding of MCD diet for 10 weeks, 8 mice were assigned to each group and a therapeutic agent was administered thereto. Peptide and liraglutide were administered once a day, a total of 12 times at 3-day intervals (FIG. 9a). For all animals, body weight was measured immediately before initiation of administration and twice a week throughout the entire test. After the end of the last administration, the animals was anesthetized by intraperitoneal injection of 300 μl of Avertin, blood was collected from the abdominal vena cava by laparotomy, the liver and spleen were removed therefrom, and the weight of the removed organs was measured. Tissues were fixed in a neutral buffered formalin solution for all animals subjected to necropsy, and paraffin blocks were manufactured and sectioned through tissue processing. The tissue sections thus obtained were subjected to H&E staining. The H&E stained specimens were scored for steatosis, ballooning degeneration, and lobular inflammation (Table 3), and the extent of hepatic inflammation (NAFLD activity score) was measured. The tissue sections manufactured in the same manner as in Example 8-2 were stained with Masson's trichrome, and 100× magnification images were obtained with an optical microscope (BX51, Olympus, GER) at 5 randomly designated different sites among all Masson's trichrome-stained slides (300MI CMOS camera, […]). The blue-stained […] was measured (Image-Pro Plus, Media Cybernetics Inc., UK) and analyzed as a percentage (Masson's trichrome-positive area […]).

[8] = nintedanib 100 mg/kg orally daily
[9] = peptides 30 mg/kg subcutaneously three times a week

T1 sequence (Q15796 whole entry): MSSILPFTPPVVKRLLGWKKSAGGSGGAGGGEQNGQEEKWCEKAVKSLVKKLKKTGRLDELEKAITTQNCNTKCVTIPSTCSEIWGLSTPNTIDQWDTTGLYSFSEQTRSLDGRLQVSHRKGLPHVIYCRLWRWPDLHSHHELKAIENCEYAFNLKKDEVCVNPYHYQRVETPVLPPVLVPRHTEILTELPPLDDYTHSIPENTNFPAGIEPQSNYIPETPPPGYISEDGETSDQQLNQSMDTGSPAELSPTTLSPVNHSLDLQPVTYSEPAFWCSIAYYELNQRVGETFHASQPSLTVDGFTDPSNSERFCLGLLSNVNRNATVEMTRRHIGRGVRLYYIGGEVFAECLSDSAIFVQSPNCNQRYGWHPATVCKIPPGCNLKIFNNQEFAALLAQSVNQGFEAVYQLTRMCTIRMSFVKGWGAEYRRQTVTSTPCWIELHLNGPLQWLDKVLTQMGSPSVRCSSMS

In the case of GKCSTRGRKSSRRKK [SEQ ID NO: 2], the “expression of pSmad2” value [1] is reported as “decreased with an increase in the concentration”, the “expression of pSmad3” value [2] is reported as “completely disappeared” and the “expression level of the TGFβ receptor” value [3] is reported as “no change”. The COL1A2 gene expression [4] was “significantly reduced”, the COL3A1 gene expression [4] was “significantly reduced” and the “gene expression of E-cadherin (MET marker)” value [5] was “increased”. For the same compound, the “gene expression of EpCAM (MET marker)” value [5] was “increased”, the “gene expression of N-cadherin (EMT marker)” value [5] was “decreased” and the “gene expression of Snail1 (EMT marker)” value [5] was “decreased”. The “gene expression of Twist1 (EMT marker)” value [5] was “decreased”, the “fibrous deposition in the lungs (Sirius Red and hematoxylin/phloxine staining)” value [6, 8] was “significantly reduce fibrosis” and the “area of fibrosis (Sirius Red)” value [6, 9] was “significant reduction”. The NAFLD activity score [7] was “significantly reduced” and the “area of fibrosis (Masson's trichrome-positive area)” value [7] was “significantly reduce”.
`COC(=O)c1ccc2c(c1)NC(=O)/C2=C(\Nc1ccc(N(C)C(=O)CN2CCN(C)CC2)cc1)c1ccccc1` [nintedanib, reference compound] was tested, and the “change in body weight after treatment” value ([6]; day 0 to day 22, treatment from day 7, peptides 30 mg/kg subcutaneously three times a week, nintedanib 100 mg/kg orally daily, FIG. 8b) was “increased” and the “fibrous deposition in the lungs (Sirius Red and hematoxylin/phloxine staining)” value [6, 8] was “some therapeutic effect, but a lot of deposited fibrous tissue was still observed”.
In the case of YGLRSKSKKFRRPDIQYPDAT [SEQ ID NO: 1], the COL1A2 gene expression [4] is reported as “significantly reduced”, the COL3A1 gene expression [4] is reported as “significantly reduced” and the “fibrous deposition in the lungs (Sirius Red and hematoxylin/phloxine staining)” value [6, 8] is reported as “significantly reduce fibrosis”. The “area of fibrosis (Sirius Red)” value [6, 9] was “significant reduction”, the NAFLD activity score [7] was “significantly reduced” and the “area of fibrosis (Masson's trichrome-positive area)” value [7] was “significantly reduce”.
